What was measured:
MIA Paca-2 GR = assay: Effect of gemcitabine on gemcitabine-resistant cell lines (RTCA); type: cell-based, human; details: 1.6 uM and 3.2 uM; without medium change or with medium change at 1 h or 3 h; compared to parental cell line
From the text: (§1) Gemcitabine-based therapy is currently the standard first-line therapy for patients with advanced PDAC. However, tumor recurrence after gemcitabine treatment may lead to short patient survival (Jia Y, Gu D, Wan J, et al. The role of GLI-SOX2 signaling axis for gemcitabine resistance in pancreatic cancer. Oncogene 2019; 38 (10): 1764-77. doi: 10.1038/s41388-018-0553-0 [published Online First: 2018 Oct. 31]). Therefore, it is critical to verify whether […] cells are effective in killing gemcitabine-resistant tumors in vitro and in vivo. In this case, we established two gemcitabine-resistant (GR) cell lines (Capan-1 GR and MIA Paca-2 GR) by exposing parental Capan-1 and MIA Paca-2 cells to increasing concentrations of gemcitabine for 9 months. […] Compared to the parental cell lines, Capan-1 GR and MIA Paca-2 GR were not killed by gemcitabine at concentrations of 1.6 uM and 3.2 uM, either without medium change or with medium change at 1 h or 3 h (FIG. 6B, FIGS. 10 and 11). We explored the anti-PC effect of […] cells targeting Capan-1 GR and MIA Paca-2 GR cells in vitro. […] We also measured the levels of CD25, CD69, CD107a, TNF-α, and IFN-γ expression of […] cells after co-incubation with GR cells and the parental cells. […] Next, we evaluated the therapeutic effect of […] cells against Capan-1 GR cells in vivo. The parental Capan-1 cells were injected as control.

Capan-1 GR = assay: as above; type: cell-based, human; details: 1.6 uM and 3.2 uM; without medium change or with medium change at 1 h or 3 h; compared to parental cell line
From the text: as §1

## Nc1ccn([C@@H]2O[C@H](CO)[C@@H](O)C2(F)F)c(=O)n1 [gemcitabine, 2′,2′-difluorodeoxycytidine]
MIA Paca-2 GR
  killing by gemcitabine (RTCA): not killed
Capan-1 GR
  killing by gemcitabine (RTCA): not killed
